ChEMBL document CHEMBL1125018, “Evidence for nitroxyl in the catalase-mediated bioactivation of the alcohol deterrent agent cyanamide” (J Med Chem, 1990)
Several values for one entry are separate records, joined by “and”; a condition that tells them apart may be missing. Identical values can stand only once.

Assays:
[1] = Nitrous oxide formed in the oxidation of unlabeled cyanamide by catalase/glucose-glucose oxidase using gas chromatography.
[2] = Nitrous oxide formed in the oxidation of 15NH2-labeled cyanamide by catalase/glucose-glucose oxidase using gas chromatography.
[3] = Nitrous oxide formed in the oxidation of U-labeled [N15]-cyanamide by catalase/glucose-glucose oxidase using gas chromatography

Which results are given for `N#CN`?
N20 formed [1]: 497 nM and 440 nM; N20 formed [2]: 186 nM; N20 formed [3]: 538 nM
